Patent US6362226B1, “Modulation of in vivo glutamine and glycine levels in the treatment of autism” (Vanderbilt University, priority 1999, dated 2002)

Test system: autistic patients
Assay: Open-label dextromethorphan treatment of autistic patients B and F with elevated plasma glutamine and/or glycine, rated by treatment-blinded observers
Assay type: in vivo, human
Description: Autistic patients were screened for elevated plasma levels of glutamine or glycine, or both. Five of 36 patients had elevated levels of either or both amino acids. One patient, “B”, had been diagnosed as having autism […] and 10 months. […] Further, B had elevated levels of glutamine in their cerebrospinal fluid, although their glycine levels were within the normal range. Their routine chemistry lab tests, including their urine organic acid profile, were normal. Patient “F” had persistent elevated glycine levels on multiple amino acid profiles which ranged from 324 to 439 μmol/L, where normal levels are from 120 to 315 μmol/L.
Both patients B and F were treated with dextromethorphan at 5 mg/kg body weight/day in the form of a cough and cold preparation sold under the registered trademark DELSYM® by McNeilLab, Inc. of Spring House, Pa., divided BID.
Example 1 discloses that 5/36 (14%) of children with autism have increased plasma levels of glutamine, glycine or both glutamine and glycine. In Example 1, an autistic patient with elevated glutamine and glycine and an autistic patient with glycine were treated with DM at 5 mg/kg body weight/day. […] The procedures of Example 1, however, were uncontrolled and open-label. In Example 2, treatment of children with autism with PB, SB or combinations of PB, SB and DM is systematically evaluated.

In the case of COc1ccc2c(c1)[C@]13CCCC[C@@H]1[C@H](C2)N(C)CC3 [dextromethorphan], the “response upon resumption of long-term dextromethorphan treatment” value (patients B and F) is reported as “responded as before and have continued to respond”, the “expressive and receptive language skills, attention span and focus, motor planning and socialization with peers” value (patients B and F, 5 mg/kg body weight/day divided BID as DELSYM, teachers and therapists blinded to treatment) is reported as “significant improvement” and the “behavior after withdrawal of dextromethorphan treatment” value (patients B and F, treatment-blinded observers, all areas previously improved) is reported as “regression in all of these areas of behavior measurement”. For the same compound, the autistic behavior (two autistic patients, DM 5 mg/kg body weight/day, uncontrolled, open-label) was “clinical improvement”.
